Key:
Homo sapiens [1] = organism: Homo sapiens; test: tissue or blood
Description: In vitro assay for PGE-2 production as a function of COX-2 inhibition in whole human blood cultured with lipopolysaccharide (LPS)

Homo sapiens [2] = organism: Homo sapiens; test: tissue or blood; remark: listed apart in the source
Description: Analysis of TXB2 as a function of COX-1 activity in heparinized human whole blood.

[3] = target: Prostaglandin G/H synthase 1 (Homo sapiens, UniProt P23219)
Prostaglandin G/H synthase 1, sequence (P23219 whole entry): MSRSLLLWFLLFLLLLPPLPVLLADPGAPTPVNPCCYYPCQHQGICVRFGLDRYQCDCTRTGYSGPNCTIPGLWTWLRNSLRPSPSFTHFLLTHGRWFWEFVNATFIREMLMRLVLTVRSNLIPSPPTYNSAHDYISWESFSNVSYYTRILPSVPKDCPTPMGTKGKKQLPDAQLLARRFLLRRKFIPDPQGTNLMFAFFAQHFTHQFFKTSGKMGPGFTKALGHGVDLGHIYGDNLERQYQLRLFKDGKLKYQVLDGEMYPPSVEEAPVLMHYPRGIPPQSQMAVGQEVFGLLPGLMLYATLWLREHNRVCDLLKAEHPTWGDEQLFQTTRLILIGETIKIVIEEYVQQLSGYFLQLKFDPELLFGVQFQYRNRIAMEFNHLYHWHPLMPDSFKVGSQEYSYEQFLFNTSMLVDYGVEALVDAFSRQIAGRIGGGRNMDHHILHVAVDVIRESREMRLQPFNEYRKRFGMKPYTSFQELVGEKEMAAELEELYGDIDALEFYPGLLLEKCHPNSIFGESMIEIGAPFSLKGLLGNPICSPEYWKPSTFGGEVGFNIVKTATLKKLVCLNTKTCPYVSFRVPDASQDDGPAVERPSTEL
Description: In Vitro activity of compound against human recombinant Prostaglandin G/H synthase 1

SMILES	IC50 (Homo sapiens [1]) [µM]	IC50 (Homo sapiens [2]) [µM]	IC50 [3] [µM]
Cc1ccc(-c2cc(C(F)(F)F)nn2-c2ccc(S(N)(=O)=O)cc2)cc1 [CELECOXIB]	0.164	6.67	–
NS(=O)(=O)c1ccc(-c2c(-c3ccccc3)noc2CO)cc1 [HYDROXYLATED DERIVATIVE]	0.329	> 50	1120
Cc1onc(-c2ccccc2)c1-c1ccc(S(N)(=O)=O)cc1 [VALDECOXIB]	0.89	25.4	–

— ChEMBL document CHEMBL1132956 (J Med Chem, 2000)
